Legend:
[1] = Film thickness of skin scaffold by Dual Polarization Interferometry; format: physicochemical
Source text: Film thickness of skin scaffold of polymer 1-Octadecanaminium NN Dimethyl (3 Trihydroxysilyl)propyl chloride polymer with Dual Polarization interferometry.

[2] = 2 g/kg applied to 10% of shaven skin, ten test animals, Study Day 1; cited from earlier work

| Compound | MASS ([1]; 40 seconds post injection) [ngmm^−2] | THICKNESS ([1]; 40 seconds post injection) [nm] | MASS ([1]; 10 minutes post injection) [ngmm^−2] | THICKNESS ([1]; 10 minutes post injection) [nm] | Skin reaction at the application site [2] |
| --- | --- | --- | --- | --- | --- |
| CCCCCCCCCCCCCCCCCC[N+](C)(C)CCC[Si](OC)(OC)OC.[Cl-] [ODTMSPC, 1-Octadecanaminium, N,N, Dimethyl-N-[(3-trimethoxysilyl)propyl] chloride] | 3.83 | 41.31 | 3.76 | 33.51 |  |
| alkyldimethylbenzylammonium chloride [Benzalkonium chloride] |  |  |  |  | all test animals exhibit erythema, and edema at the application site |
